Laboratory results: patent publication US20060100154A1, “Long-acting gonadotropin-releasing hormone analogs and methods of use thereof” (YEDA RESEARCH AND DEVELOPMENT CO, priority 2005, published 2006)
Square brackets hold non-standard residues; d marks the D form. d(pGlu) = O=C1CC[C@H](C(=O)O)N1

Columns and labels:
[1] = target: T1, human serum albumin (HSA) (Homo sapiens, UniProt P02768); test: Binding to HSA; assay type: in vitro ADME; conditions: 37° C., 3 h; FIG. 8
T1 construct: purchased Sigma, St. Louis, Mo
T1 sequence (P02768 25-609): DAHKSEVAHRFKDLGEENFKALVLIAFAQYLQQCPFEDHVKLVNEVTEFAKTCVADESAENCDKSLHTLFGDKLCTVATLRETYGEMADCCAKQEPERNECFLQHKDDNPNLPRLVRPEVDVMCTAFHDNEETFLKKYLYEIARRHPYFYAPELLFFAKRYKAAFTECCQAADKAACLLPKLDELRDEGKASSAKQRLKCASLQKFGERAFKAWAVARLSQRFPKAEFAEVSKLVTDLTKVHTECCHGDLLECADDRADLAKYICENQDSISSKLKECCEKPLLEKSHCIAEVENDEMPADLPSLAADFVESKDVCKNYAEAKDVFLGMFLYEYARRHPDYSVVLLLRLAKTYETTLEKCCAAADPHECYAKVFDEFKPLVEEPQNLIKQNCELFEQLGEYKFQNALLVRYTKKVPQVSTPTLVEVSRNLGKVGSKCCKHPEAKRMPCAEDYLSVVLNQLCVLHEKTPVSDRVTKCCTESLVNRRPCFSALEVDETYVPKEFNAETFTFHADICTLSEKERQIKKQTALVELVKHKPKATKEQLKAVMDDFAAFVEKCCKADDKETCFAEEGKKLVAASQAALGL
Experimental: The concentration of HSA in the solution was determined using a molar extinction coefficient of 39,000 M^−1 cm^−1 at 277.5 nm^33. The unbound compound was then separated from the HSA solution by applying it on to a Centricon® concentrator column (Amicon Inc., Beverly, Mass.) with a band pass membrane of […] according to the manufacture's protocol. The HSA bound compound (˜20 μL) was then precipitated by adding it to acetonitrile (1 mL). The supernatant was kept and the precipitate was dissolved in PBS (100 μL) and re-precipitated. The combined supernatants were evaporated, the residue was dissolved in water containing 0.1% TFA (buffer A) and analyzed by HPLC to determine the amount of the tested compounds. Results represent the mean of two experiments (FIG. 8).

[2] = Relative hydrophobicity by elution from RP-18 HPLC column; assay type: physicochemical; conditions: percent of buffer B in which the analog was eluted from RP-18 column
Source text: All chemicals and reagents were of analytical grade. Rink amide resin, 9-fluorenylmethoxycarbonyl (Fmoc) protected amino acid derivatives, and all the reagents for solid-phase peptide synthesis were purchased from Novabiochem (Läufelfingen, Switzerland). Side-chain protecting groups employed for peptide synthesis were as follows: Arg, 2,2,4,6,7-pentamethyldihydrobenzofuran-5-sulfonyl (Pbf); His, trityl (Trt); D-Lys, 4-methyltrityl (Mtt) or tert-butyloxycarbonyl (Boc); Trp, tert-butyloxycarbonyl (Boc); Ser and Tyr, tert-butyl (tBu). Reversed phase HPLC was performed on a Spectra-Physics SP-8800 liquid chromatography system equipped with an Applied Biosystems 757 variable wavelength absorbance detector. HPLC prepacked columns were: Lichrocart, containing Lichrosorb RP-18 (250×10 mm; 7 μm, Merck, Darmstadt, Germany) for semi-preparative purification and Lichrospher 100 RP-18 (250×4 mm; 5 μm, Merck, Darmstadt, Germany) and wide pore butyl C4 (250×4.6 mm; 5 μm, J. T. Baker Inc., Phillipsburg, N.J.) for analytical purposes. HPLC purification and analysis were achieved by using a linear gradient established between 0.1% trifluoroacetic acid […] in water as buffer A and 0.1% TFA in 75% aqueous acetonitrile as buffer B. Eluent composition was 10-100% B over 40 mlin, using RP-18 column, and a gradient of 0-100% B over 40 min employing a wide pore butyl (C4) column. N-(2noro-1,4-naphtoqumonyl)-β-alanine (NQ), 1,6,8-Trihydroxy-3-carboxylic acid-anthraquinone (Emo) and 2-hydroxymethyl-anthraquinone hemiglutarate (AntrQ) were synthesized as described^14,24,27 (for chemical structure see FIG. 1).

[3] = system: LH release; test: In vivo LH release after intraperitoneal administration; set-up: species or system rat; conditions: six h after administration; 0.04 vs 0.4 nmol/rat i.p.
Experimental: The ability of [D-Lys^6(Emo)]GnRH to bind GnRH receptors and promote LH release in vitro, prompted the evaluation of its in vivo activity.
Blood samples were withdrawn by cardiac puncture under light ether anesthesia at the indicated time intervals, and serum LH levels were determined by RIA as described above (FIG. 6). Results are the mean±SEM of LH concentrations in the serum of five animals/experimental group. The LH concentration was determined using three different dilutions of each serum sample. Similar results were obtained in two other experiments.

[4] = system: primary cultures of rat pituitary cells; test: LH releasing potency in primary rat pituitary cell cultures; assay type: cell-based; conditions: 4 h, 37° C.; compared to [D-Lys6]GnRH; FIG. 4
Experimental: The media were then collected and LH concentration were analyzed by double-antibody radioimmunoassay (RIA)^32 using kits kindly supplied by the National Institute of Arthritis, Metabolism and Digestive Diseases (NIMDD). Results (FIG. 4) are expressed in terms of LH-RP-3 rat reference preparation, and are the mean±SEM of LH concentration of two experiments (4 wells/experimental group, each). The basal release after 4 h was 9.41±2 ng/mL.

[5] = system: αT3-1 cells; test: DNA fragmentation assay; assay type: cell-based, mouse; conditions: 10 μM, FIG. 10
Experimental: FIG. 10. DNA cleavage in cells treated with [D-Lys^6(Emo)]GnRH and emodic acid. αT3-1 cells were incubated; in darkness with 10 μM of the tested compounds, washed and illuminated. After 24 h of incubation DNA was isolated and analyzed by gel electrophoresis. Lanes 1, 3 and 5 represent DNA of cells treated with 1% DMSO in PBS, emodic acid or [D-Lys^6(Emo)]GnRH, respectively, followed by illumination. Lane 2, 4 and 6 represent cells treated with 1% DMSO in PBS, emodic acid, or [D-Lys^6(Emo)]GnRH, respectively, in darkness.
αT3-1 cells (×10^6/dish) were incubated in phenol red and serum free complete medium (37° C., 5% CO2) with the tested compounds for 5 h in the dark. Cells were then washed with PBS (×3) and illuminated or remained in darkness as described earlier. The media were then replaced by complete medium and cells were incubated for additional 24 h. DNA was then isolated, using Wizard® genomic DNA purification kit (Promega, Madison, Wis.) following the company's protocol and analyzed by gel electrophoresis (0.4% cross linked agarose, ethidium bromide staining).

[6] = system: testes and prostate glands; test: Long-term treatment of male rats: weight of testes and prostate glands; assay type: in vivo; conditions: 0.1 nmol/rat daily for 7 days vs parent peptide 1 nmol/rat; FIG. 7
Experimental: Control rats were injected daily with 0.5 mL of PBS. Rats were sacrificed 24 h after the last injection, and the testes and prostate glands were immediately dissected and weighed (FIG. 7). Results are the meant±SEM of the weight of the organs (six animals/experimental group).

[7] = target: T2, rat pituitary GnRH receptors (Rattus norvegicus, UniProt P30969); test: Displacement binding assay with 125I[D-Lys6]GnRH on rat pituitary membranes; conditions: vs [D-Lys6]GnRH
T2 construct: from tissue; host or cells: rat pituitary membranes (Wistar-derived rats)
T2 sequence (P30969 1-327): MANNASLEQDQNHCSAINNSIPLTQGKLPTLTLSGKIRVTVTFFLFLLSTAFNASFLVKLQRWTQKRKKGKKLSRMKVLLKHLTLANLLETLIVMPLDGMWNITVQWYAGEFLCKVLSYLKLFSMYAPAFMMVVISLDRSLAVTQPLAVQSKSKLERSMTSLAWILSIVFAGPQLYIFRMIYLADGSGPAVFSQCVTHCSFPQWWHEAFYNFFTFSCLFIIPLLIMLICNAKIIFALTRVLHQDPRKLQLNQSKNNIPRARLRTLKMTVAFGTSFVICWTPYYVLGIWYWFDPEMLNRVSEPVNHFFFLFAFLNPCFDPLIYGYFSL
Experimental: Specific binding was calculated by subtracting the non-specific binding from the maximal binding, determined in the absence of any competing peptide. Results are the mean of two experiments carried out in triplicates. SEM values are omitted for clarity (FIG. 3).

[8] = system: αT3-1 cells; test: In vitro toxicity / phototoxicity (XTT cell survival); assay type: cell-based, mouse
Experimental: αT3-1 cells (50,000 cells/well) were plated in 96-well tissue culture plates in 0.1 mL of complete medium. After 24 h the medium was changed and cells were incubated in the same medium (without serum and phenol red) containing different concentrations of the tested compounds for 4 h at 37° C. The cells were then washed (×3) with PBS and illuminated (λmax=400 nm) in PBS. The fluence rate was 14.3 mW cm^−2 with a total fluence of 17 J cm^−2. Following illumination the media were replaced by complete medium and the plates were incubated for additional 24 h at 37° C. Cell survival was determined using the XTT (Biological Industries, Beit-Haemek, Israel) kit following the manufacture's protocol. Values are expressed as % survival.

[9] = system: primary cultures of rat pituitary cells; test: Effect of GnRH antagonist on LH secretion stimulated by [D-Lys6(Emo)]GnRH; assay type: cell-based; conditions: [D-Lys6(Emo)]GnRH 20 pM, antagonist 100 nM, 4 h; FIG. 5
Experimental: To determine the effect of a GnRH antagonist ([D-pyr^1, D-Phe^2, D-Trp^3,6]GnRH) on the induction of LH secretion from primary cultures of rat pituitary cells stimulated by [D-Lys^6(Emo)]GnRH, cells were incubated for 4 h at 37° C. with [D-Lys^6(Emo)]GnRH (20 pM) in the absence or presence of the GnRH antagonist (100 nM). The media were collected and LH concentration was determined by RIA (FIG. 5). Results are the mean±SEM of LH concentrations obtained from two experiments (4 wells/experimental group, each).

Row | Molecule | binding to HSA [1] | Hydrophobicity (% B) [2] [% B] | LH levels relative to group treated with [D-Lys6]GnRH [3] | LH releasing activity in vitro [4] | DNA fragmentation in the dark ([5]; darkness) | DNA fragmentation upon illumination ([5]; illuminated) | decrease in testicular and ventral prostate gland weights [6] | reduction of affinity to GnRH receptors compared to the parent peptide [7] | phototoxicity to αT3-1 cells ([8]; 10 μM, illuminated, FIG. 9) | toxicity to αT3-1 cells in the dark ([8]; incubated in the dark) | inhibition of [D-Lys6(Emo)]GnRH-induced LH secretion [9]
1 | CC(C)C[C@H](NC(=O)[C@@H](CCCCNC(=O)c1cc(O)c2c(c1)C(=O)c1cc(O)cc(O)c1C2=O)NC(=O)[C@H](Cc1ccc(O)cc1)NC(=O)[C@H](CO)NC(=O)[C@H](Cc1c[nH]c2ccccc12)NC(=O)[C@H](Cc1c[nH]cn1)NC(=O)[C@@H]1CCC(=O)N1)C(=O)N[C@@H](CCCNC(=N)N)C(=O)N1CCC[C@H]1C(=O)NCC(N)=O [[D-Lys^6(Emo)]GnRH, [D-Lys^6(1,3,8-trihydroxy-6-carboxy-anthraquinone)]GnRH] | binds significantly to HSA | 66 | about 6 folds | highest bioactivity | did not cause any DNA fragmentation | but not [D-Lys^6(Emo)]GnRH (lane 5) induced DNA fragmentation | greater decrease | about 3 fold | did not exhibit any toxicity | did not show any toxicity | 
2 | [D-pGlu^1, D-Phe^2, D-Trp^3,6]GnRH ([d(pGlu)][dF][dW]SY[dW]LRPG-NH2; SMILES CC(C)C[C@H](NC(=O)[C@@H](Cc1c[nH]c2ccccc12)NC(=O)[C@H](Cc1ccc(O)cc1)NC(=O)[C@H](CO)NC(=O)[C@@H](Cc1c[nH]c2ccccc12)NC(=O)[C@@H](Cc1ccccc1)NC(=O)[C@H]1CCC(=O)N1)C(=O)N[C@@H](CCCNC(=N)N)C(=O)N1CCC[C@H]1C(=O)NCC(N)=O) [GnRH antagonist] |  |  |  |  |  |  |  |  |  |  | completely inhibited
